One may read the IC50 as the midpoint of a concentration-inhibition curve.

Each structure is given as a SMILES string. *1 amine or outer side, *2 acyl side, *3 side chain or, on linkers, in order; H or OH if unused. Where a SMILES comes first, the peptide text is derived from it. [ ]: non-standard residue; d: D form. The star is where a group is joined. Phe(2-Me) = Cc1ccccc1C[C@H](N)C(=O)O; NleCONH2 = CCCC[C@H](N*)C(=O)C(N)=O; Suc = O=C(CCC(=O)[*:2])[*:1]; Tle = CC(C)(C)[C@H](N)C(=O)O

This experiment can be described thus: Compound was tested for inhibition of Serine protease chymotrypsin.

For the compound `CCCC[C@H](NC(=O)[C@H](CC(C)C)NC(=O)[C@@H](NC(=O)[C@H](Cc1ccccc1C)NC(=O)[C@H](CCC(=O)O)NC(=O)[C@H](CC(=O)O)NC(=O)CCC(=O)O)C(C)(C)C)C(=O)C(N)=O` [(S)-4-((S)-1-{(S)-1-[(S)-1-((R)-1-Aminooxalyl-pentylcarbamoyl)-3-methyl-butylcarbamoyl]-2,2-dimethyl-propylcarbamoyl}-2-o-tolyl-ethylcarbamoyl)-4-[(S)-3-carboxy-2-(3-carboxy-propionylamino)-propionylamino]-butyric acid] (Suc-DE[Phe(2-Me)][Tle]L-NleCONH2), inhibition was half-maximal at 300 nM (IC50).
